# Laboratory results as given in patent publication US9216957B2, “Androgen receptor antagonists and uses thereof” (SUZHOU KINTOR PHARMACEUTICALS, INC., priority 2011, dated 2015).
# Like-named read-outs stand apart in the source and are kept apart here.
# System: Prostate-specific antigen (PSA) production in LNCaP cells
# Assay: PSA Assay (inhibition of PSA production in prostate cancer cells, ELISA)
# Format: cell-based, human
# Description: PSA Assay (Inhibition Test of the Compound of the Present Invention on Prostate-Specific Antigen (PSA) Production in Various Prostate Cancer Cells).
# Androgen dependent LNCaP cells were purchased from the American Type Culture Collection (ATCC, Manassas, Va.). These cells were grown in RPMI 1640 medium supplemented with 10% fetal bovine serum (FBS), 100 U/mL penicillin, 100 μg/mL streptomycin, and 0.25 μg/mL amphotericin B. The cells were maintained at 37° C. and 5% CO2. LNCaP cells between passage 20 and 35 were used for experiments. LNCaP is a hormone sensitive cell line. For the PSA assay, human prostate cancer cells LNCaP were seeded in a 96-well plate at a concentration of 5000 cells/100 μl/well. On the following day, Methyltrienolone (R1881, AR agonist) (final concentration 1 ng/ml), test compounds or bicalutamide (Casodex®, AstraZeneca) (final concentration 0.005 to 20 μM) were added. Three days after the addition, the concentration of PSA in the supernatant of the culture solution was measured by ELISA. ELISAs for human PSA in culture medium were performed using the ultra-sensitive assay procedure and reagents in the Active™ PSA assay kit (Diagnostic Systems Laboratories Inc., Webster, Tex.). Culture medium and standards (200 μl/well) were incubated in antibody-coated plates for 2 h at room temperature on a Titer plate shaker at 500-600 rpm. Wells were then washed five times. The HRP conjugate was diluted 1:20 with assay buffer, and 100 μl was added to all wells. The plates were incubated for 30 min at room temperature on the shaker and washed as before, and 100 μl TMB (3,3′,5,5′-tetramethylbenzidine, 0.4 g/l) was added. The plates were incubated for 10 min on the shaker, and the reaction was terminated with 100 μl stop solution. The plates were read using a plate reader at 450 nm with a 650 nm reference filter. PSA levels were normalized for differences in growth of LNCaP cells following various treatments as determined by the MTS assay. IC50 of PSA was calculated based on a seven point assay (concentrations of tested compound) and expressed as micromolar (uM).
# [1] = Homo sapiens, LNCaP, 72 h, read-out: LNCAP IC50 (uM), inhibition of PSA production, LNCaP cells, R1881 1 ng/ml, three days, seven point assay
SMILES,IC50 [1] [µM],further results
"COc1cc(N2C(=O)C(C)(C)N(c3ccc(CCCc4nccs4)nc3)C2=S)ccc1C#N [Example 69, 4-(4,4-dimethyl-5-oxo-3-(6-(3-(thiazol-2-yl)propyl)pyridin-3-yl)-2-thioxoimidazolidin-1-yl)-2-methoxybenzonitrile]",0.68,–
"CC1(C)C(=O)N(c2cc(C(F)(F)F)c(C#N)cc2F)C(=S)N1c1ccc(CCCc2ncc[nH]2)c(F)c1 [Example 60, 4-(3-(4-(3-(1H-imidazol-2-yl)propyl)-3-fluorophenyl)-4,4-dimethyl-5-oxo-2-thioxoimidazolidin-1-yl)-5-fluoro-2-(trifluoromethyl)benzonitrile]",3.3,–
"CNC(=O)C1(CCc2ccc(N3C(=S)N(c4ccc(C#N)c(C(F)(F)F)c4F)C(=O)C34CCC4)cc2)CCC1 [Example 35, 1-(2-{4-[7-(4-Cyano-2-fluoro-3-trifluoromethyl-phenyl)-8-oxo-6-thioxo-5,7-diaza-spiro[3.4]oct-5-yl]-phenyl}-ethyl)-cyclobutanecarboxylic acid methylamide]",0.44,–
"CC1(C)C(=O)N(c2ccc(C#N)c(C(F)(F)F)c2F)C(=S)N1c1ccc(CCCC(=O)N2CCOCC2)nc1 [Example 55, 4-{4,4-Dimethyl-3-[6-(4-morpholin-4-yl-4-oxo-butyl)-pyridin-3-yl]-5-oxo-2-thioxo-imidazolidin-1-yl}-3-fluoro-2-trifluoromethyl-benzonitrile]",1.2,–
"COC(=O)CCCc1ccc(N2C(=S)N(c3ccc(C#N)c(Cl)c3F)C(=O)C2(C)C)cc1 [Example 1, methyl 4-(4-(3-(3-chloro-4-cyano-2-fluorophenyl)-5,5-dimethyl-4-oxo-2-thioxoimidazolidin-1-yl)phenyl)butanoate]",1.34,–
"COc1c(C#N)ccc(N2C(=O)C(C)(C)N(c3ccc(CCCC(=O)N(C)C)cc3)C2=S)c1F [Example 13, 4-{4-[3-(4-Cyano-2-fluoro-3-methoxy-phenyl)-5,5-dimethyl-4-oxo-2-thioxo-imidazolidin-1-yl]-phenyl}-N,N-dimethyl-butyramide]",1.06,–
"CC1(C)C(=O)N(c2ccc(C#N)c(Cl)c2F)C(=S)N1c1ccc(CCCC#N)c(F)c1 [Example 29, 2-chloro-4-(3-(4-(3-cyanopropyl)-3-fluorophenyl)-4,4-dimethyl-5-oxo-2-thioxoimidazolidin-1-yl)-3-fluorobenzonitrile]",0.29,–
"CC1(C)C(=O)N(c2ccc(C#N)c(C(F)(F)F)c2F)C(=S)N1c1ccc(CCCc2ncc[nH]2)cc1 [Example 19, 4-(3-(4-(3-(1H-imidazol-2-yl)propyl)phenyl)-4,4-dimethyl-5-oxo-2-thioxoimidazolidin-1-yl)-3-fluoro-2-(trifluoromethyl)benzonitrile]",0.76,–
"N#Cc1ccc(N2C(=O)C3(CCC3)N(c3ccc(CCCC(=O)N4CC(O)C4)c(F)c3)C2=S)c(F)c1C(F)(F)F [Example 61, 3-Fluoro-4-(5-{3-fluoro-4-[4-(3-hydroxy-azetidin-1-yl)-4-oxo-butyl]-phenyl}-8-oxo-6-thioxo-5,7-diaza-spiro[3.4]oct-7-yl)-2-trifluoromethyl-benzonitrile]",0.19,–
"COc1c(C#N)ccc(N2C(=O)C(C)(C)N(c3ccc(CCCc4ncc[nH]4)cc3)C2=S)c1F [Example 21, 3-Fluoro-4-(3-{4-[3-(1H-imidazol-2-yl)-propyl]-phenyl}-4,4-dimethyl-5-oxo-2-thioxo-imidazolidin-1-yl)-2-methoxy-benzonitrile]",1.83,–
"CN1CCN(C(=O)CCCc2ccc(N3C(=S)N(c4ccc(C#N)c(C(F)(F)F)c4F)C(=O)C3(C)C)cc2F)CC1 [Example 53, 3-Fluoro-4-(3-{3-fluoro-4-[4-(4-methyl-piperazin-1-yl)-4-oxo-butyl]-phenyl}-4,4-dimethyl-5-oxo-2-thioxo-imidazolidin-1-yl)-2-trifluoromethyl-benzonitrile]",0.41,–
"CNC(=O)C(C)(C)CCc1ccc(N2C(=S)N(c3ccc(C#N)c(Cl)c3F)C(=O)C23CCC3)cc1 [Example 27, 4-{4-[7-(3-Chloro-4-cyano-2-fluoro-phenyl)-8-oxo-6-thioxo-5,7-diaza-spiro[3.4]oct-5-yl]-phenyl}-2,2,N-trimethyl-butyramide]",0.47,–
"CC1(C)C(=O)N(c2ccc(C#N)c(Cl)c2F)C(=S)N1c1ccc(CCCC#N)nc1 [Example 37, 2-chloro-4-(3-(6-(3-cyanopropyl)pyridin-3-yl)-4,4-dimethyl-5-oxo-2-thioxoimidazolidin-1-yl)-3-fluorobenzonitrile]",0.65,–
"N#CCCCc1ccc(N2C(=S)N(c3ccc(C#N)c(Cl)c3F)C(=O)C23CCC3)cc1F [Example 33, 2-chloro-4-(5-(4-(3-cyanopropyl)-3-fluorophenyl)-8-oxo-6-thioxo-5,7-diazaspiro[3.4]octan-7-yl)-3-fluorobenzonitrile]",0.64,–
"CC1(C)C(=O)N(c2ccc(C#N)c(Cl)c2F)C(=S)N1c1ccc(CCCC#N)cc1 [Example 59, 2-chloro-4-(3-(4-(3-cyanopropyl)phenyl)-4,4-dimethyl-5-oxo-2-thioxoimidazolidin-1-yl)-3-fluorobenzonitrile]",–,"IC50 (read-out: LNCAP IC50, inhibition of PSA production, LNCaP cells, R1881 1 ng/ml, three days, seven point assay): 0.48 µM"
"CC1(C)C(=O)N(c2ccc(C#N)c(C(F)(F)F)c2F)C(=S)N1c1ccc(CCCC(=O)N2CC(O)C2)c(F)c1 [Example 47, 3-Fluoro-4-(3-{3-fluoro-4-[4-(3-hydroxy-azetidin-1-yl)-4-oxo-butyl]-phenyl}-4,4-dimethyl-5-oxo-2-thioxo-imidazolidin-1-yl)-2-trifluoromethyl-benzonitrile]",0.48,–
"CC1(C)C(=O)N(c2ccc(C#N)c(Cl)c2F)C(=S)N1c1ccc(CCCC#N)cc1 [Example 41, 2-chloro-4-(3-(4-(3-cyanopropyl)phenyl)-4,4-dimethyl-5-oxo-2-thioxoimidazolidin-1-yl)-3-fluorobenzonitrile]",0.32,–
"CC1(C)C(=O)N(c2ccc(C#N)c(C(F)(F)F)c2F)C(=S)N1c1ccc(CCCC#N)cc1 [Example 40, 4-(3-(4-(3-cyanopropyl)phenyl)-4,4-dimethyl-5-oxo-2-thioxoimidazolidin-1-yl)-3-fluoro-2-(trifluoromethyl)benzonitrile]",0.3,–
"CC(O)(CS(=O)(=O)c1ccc(F)cc1)C(=O)Nc1ccc(C#N)c(C(F)(F)F)c1 (centres unmarked) [Bicalutamide, reference compound]",–,"IC50 (Homo sapiens, LNCaP cells, read-out: IC50 of inhibition of PSA production in LNCaP cells): 3.1 µM"
"CNC(=O)CCCc1ccc(N2C(=S)N(c3ccc(C#N)c(C(F)(F)F)c3F)C(=O)C2(C)C)cc1 [Example 5, 4-(4-(3-(4-cyano-2-fluoro-3-(trifluoromethyl)phenyl)-5,5-dimethyl-4-oxo-2-thioxoimidazolidin-1-yl)phenyl)-N-methylbutanamide]",0.37,–
"COc1c(C#N)ccc(N2C(=O)C(C)(C)N(c3ccc(CCCC#N)nc3)C2=S)c1F [Example 39, 4-(3-(6-(3-cyanopropyl)pyridin-3-yl)-4,4-dimethyl-5-oxo-2-thioxoimidazolidin-1-yl)-3-fluoro-2-methoxybenzonitrile]",0.75,–
"CNC(=O)CCCc1ccc(N2C(=S)N(c3ccc(C#N)c(Cl)c3F)C(=O)C23CCC3)cc1 [Example 11, 4-(4-(7-(3-chloro-4-cyano-2-fluorophenyl)-8-oxo-6-thioxo-5,7-diazaspiro[3.4]octan-5-yl)phenyl)-N-methylbutanamide]",0.54,–
"N#CCCCc1ccc(N2C(=S)N(c3ccc(C#N)c(C(F)(F)F)c3F)C(=O)C23CCC3)cc1 [Example 42, 4-(5-(4-(3-cyanopropyl)phenyl)-8-oxo-6-thioxo-5,7-diazaspiro[3.4]octan-7-yl)-3-fluoro-2-(trifluoromethyl)benzonitrile]",0.85,–
"COC(=O)CCc1ccc(N2C(=S)N(c3ccc(C#N)c(C(F)(F)F)c3F)C(=O)C2(C)C)cc1 [Example 3, methyl 3-(4-(3-(4-cyano-2-fluoro-3-(trifluoromethyl)phenyl)-5,5-dimethyl-4-oxo-2-thioxoimidazolidin-1-yl)phenyl)propanoate]",7.83,–
"CNC(=O)CCCc1ccc(N2C(=S)N(c3cc(C(F)(F)F)c(C#N)cc3F)C(=O)C2(C)C)cc1 [Example 6, 4-(4-(3-(4-cyano-2-fluoro-5-(trifluoromethyl)phenyl)-5,5-dimethyl-4-oxo-2-thioxoimidazolidin-1-yl)phenyl)-N-methylbutanamide]",4.75,–
"N#CCCCc1ccc(N2C(=S)N(c3ccc(C#N)c(C(F)(F)F)c3F)C(=O)C23CCC3)cc1F [Example 31, 4-(5-(4-(3-cyanopropyl)-3-fluorophenyl)-8-oxo-6-thioxo-5,7-diazaspiro[3.4]octan-7-yl)-3-fluoro-2-(trifluoromethyl)benzonitrile]",0.53,–
